Our source for the IC50 values is patent US11352330B2, “Phenoxymethyl derivatives” (Hoffmann-La Roche Inc., priority 2015, dated 2022).

SMILES strings stand for the structures.

The target in the experiment is human ATX (Homo sapiens (Human), UniProt Q13822). Briefly: Human ATX enzyme inhibition assay (fluorescence quenching, MR121 substrate). The experiment is classed as biochemical. The settings on record: human His-tagged ATX 30 nM, MR121 substrate 1 μM, 30° C. The essentials: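 Human His-tagged ATX (30 nM final) preincubated 15 min at 30 °C with serially diluted compounds in Tris buffer pH 8.0 with Ca2+, Mg2+ and 0.01% Triton X-100. MR121/tryptophan-labelled substrate analogue (1 μM final) then added for 15 min at 30 °C; cleavage read by fluorescence dequenching.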

Regarding `Cc1cc(OCc2n[nH]c3nc(OCC(O)CO)ccc23)c(C(C)(C)C)cc1Cl` (centres unmarked) [Example D15, 3-[[3-[(2-tert-Butyl-4-chloro-5-methylphenoxy)methyl]-1H-pyrazolo[3,4-b]pyridin-6-yl]oxy]propane-1,2-diol], 6 nM corresponded to half-maximal inhibition (IC50).

Turning to `COCCNC(=O)c1cccc(-c2cc(Cl)c(C)cc2OCc2n[nH]c3ncccc23)c1` [Example D16], the midpoint of inhibition, the IC50, lay at 18 nM.

As for `Cc1cc(OCc2n[nH]c3ncccc23)c(-c2cccc(C(=O)N3CCOCC3)c2)cc1Cl` [Example D17, [3-[5-Chloro-4-methyl-2-(1H-pyrazolo[3,4-b]pyridin-3-ylmethoxy)phenyl]phenyl]-morpholin-4-ylmethanone], the IC50 (in general, the concentration needed to halve the response being measured) amounted to 2 nM.

As to `Cc1cc(OCc2n[nH]c3ncccc23)c(-c2cccc(C(=O)N(C)C)c2)cc1Cl` [Example D18], the midpoint of inhibition, the IC50, lay at 17 nM.

Regarding `Cc1cc(OCc2n[nH]c3ncccc23)c(-c2cccc(C(=O)NCCO)c2)cc1Cl` [Example D19], the IC50 worked out at 35 nM.

As to `COc1ncccc1-c1cc(Cl)c(C)cc1OCc1n[nH]c2ncccc12` [Example D20], half-maximal inhibition (IC50) required 22 nM.

`Cc1cc(OCc2n[nH]c3ncccc23)c(-c2cc(C(=O)N(C)C)ccc2F)cc1Cl` [Example D21]: the IC50 amounted to 9 nM.

The compound `Cc1cc(OCc2n[nH]c3ncccc23)c(-c2cc(C(=O)N3CCOCC3)ccc2F)cc1Cl` [Example D22] came in with a concentration for half-maximal inhibition (IC50) of 10 nM.

As for `Cc1cc(OCc2n[nH]c3cccnc23)c(C(C)(C)C)cc1Cl` [Example D23], the IC50 came to 21 nM.

For `Cc1cc(OCc2n[nH]c3cccnc23)c(-c2cccc(C(=O)N(C)C)c2)cc1Cl` [Example D24], the IC50 was found to be 99 nM.

As for `CC(C)(C)c1cc(Cl)c(F)cc1OCc1n[nH]c2cccnc12` [Example D25], the 50% inhibitory concentration (IC50) was 18 nM.

`Cc1cc(OCc2n[nH]c3nc(N(C)CCO)ncc23)c(C(C)(C)C)cc1Cl` [Example D26, 2-[[3-[(2-tert-Butyl-4-chloro-5-methylphenoxy)methyl]-1H-pyrazolo[3,4-d]pyrimidin-6-yl]-methylamino]ethanol] came in with an IC50 of 14 nM.

In the case of `Cc1cc(OCc2n[nH]c3nc(N(C)CC(O)CO)ncc23)c(C(C)(C)C)cc1Cl` (centres unmarked) [Example D27], inhibition was half-maximal at 8 nM (IC50).

In the case of `Cc1cc(OCc2n[nH]c3cccnc23)c(-c2cc(C(=O)N(C)C)ccc2F)cc1Cl` [Example D28], half-maximal inhibition (IC50) was put at 98 nM.

Consider `Cc1cc(OCc2n[nH]c3nc(N4CC(O)C4)ncc23)c(C(C)(C)C)cc1Cl` [Example D29], for which the midpoint of inhibition, the IC50, lay at 10 nM.

With `Cc1cc(OCc2n[nH]c3nc(NCCO)ncc23)c(C(C)(C)C)cc1Cl` [Example D30], the IC50 is 9 nM.

`Cc1cc(OCc2n[nH]c3nc(OCCO)ncc23)c(C(C)(C)C)cc1Cl` [Example D31, 2-[[3-[(2-tert-Butyl-4-chloro-&-methylphenoxy)methyl]-1H-pyrazolo[3,4-d]pyrimidin-6-yl]oxy]ethanol]: it took 7 nM to reach half-maximal inhibition (IC50).

For the compound `Cc1cc(OCc2n[nH]c3nc(N4CC(O)C4)ncc23)c(C(C)(C)C)cc1C#N` [Example D32, 5-tert-Butyl-4-[[6-(3-hydroxyazetidin-1-yl)-1H-pyrazolo[3,4-d]pyrimidin-3-yl]methoxy]-2-methylbenzonitrile], the IC50 was determined as 8 nM.

Take `Cc1cc(OCc2n[nH]c3nc(OCC(O)CO)ncc23)c(C(C)(C)C)cc1Cl` (centres unmarked) [Example D34, 3-[[3-[(2-tert-Butyl-4-chloro-5-methylphenoxy)methyl]-1H-pyrazolo[3,4-d]pyrimidin-6-yl]oxy]propane-1,2-diol]: the IC50 stood at 2 nM.

Compound `Cc1cc(OCc2n[nH]c3nc(NCCO)ncc23)c(C(C)(C)C)cc1C#N` [Example D35] yielded an IC50 of 9 nM.

In the case of `Cc1cc(OCc2n[nH]c3nc(OCC(O)CO)ncc23)c(C(C)(C)C)cc1C#N` (centres unmarked) [Example D37, 5-tert-Butyl-4-[[6-(2,3-dihydroxypropoxy)-1H-pyrazolo[3,4-d]pyrimidin-3-yl]methoxy]-2-methylbenzonitrile], 6 nM corresponded to half-maximal inhibition (IC50).

`Cc1cc(OCc2n[nH]c3nc(OCCO)ncc23)c(C(C)(C)C)cc1C#N` [Example D38, 5-tert-Butyl-4-[[6-(2-hydroxyethoxy)-1H-pyrazolo[3,4-d]pyrimidin-3-yl]methoxy]-2-methylbenzonitrile] yielded an IC50 of 9 nM.

Regarding `Cc1cc(OCc2n[nH]c3ncccc23)c(-c2cc(C(=O)N3CCN(C)C(=O)C3)ccc2F)cc1Cl` [Example D39], it took 8 nM to reach half-maximal inhibition (IC50).

The compound `COCCN(C)C(=O)c1ccc(F)c(-c2cc(Cl)c(C)cc2OCc2n[nH]c3ncccc23)c1` [Example D40] returned an IC50 of 6 nM.

Compound `Cc1cc(OCc2n[nH]c3ccccc23)c(-c2cc(C(=O)N3CCN(C)C(=O)C3)ccc2F)cc1Cl` [Example D41] registered an IC50 of 7 nM.

`Cc1cc(OCc2n[nH]c3ncccc23)c(-c2cc(C(=O)N3CCCC3)ccc2F)cc1Cl` [Example D42] had an IC50 of 6 nM.

`N#Cc1cc(-c2cc(C(=O)N3CCCC3)ccc2F)c(OCc2n[nH]c3ncccc23)cc1Cl` [Example D43] gave an IC50 of 7 nM.

Compound `Cc1cc(OCc2n[nH]c3cnccc23)c(-c2cc(C(=O)N3CCN(C)C(=O)C3)ccc2F)cc1Cl` [Example D44, 4-[3-[5-Chloro-4-methyl-2-(1H-pyrazolo[3,4-c]pyridin-3-ylmethoxy)phenyl]-4-fluorobenzoyl]-1-methylpiperazin-2-one] displayed an IC50 of 9 nM.

On to `CC(C)(C)c1cc(S(C)(=O)=O)ccc1OCc1n[nH]c2ncccc12` [Example D45], for which 23 nM corresponded to half-maximal inhibition (IC50).

For the compound `COCCN(C)C(=O)c1ccc(F)c(-c2cc(Cl)c(C)cc2OCc2n[nH]c3cnccc23)c1` [Example D46], half-maximal inhibition (IC50) required 4 nM.

In the case of `COc1ncccc1-c1cc(Cl)c(C)cc1OCc1n[nH]c2cnccc12` [Example D47], the IC50 amounted to 11 nM.

`Cc1cc(C(C)(C)C)c(OCc2n[nH]c3ncccc23)cc1C#N` [Example D48] showed a half-maximal inhibitory concentration (IC50) of 32 nM.

With `Cc1cc(C(C)(C)C)c(OCc2n[nH]c3cnccc23)cc1C#N` [Example D49], the IC50 worked out at 2 nM.

Compound `CC(C)(C)c1cc(Cl)c(C#N)cc1OCc1n[nH]c2cnccc12` [Example D50] registered an IC50 of 1 nM.

In the case of `N#Cc1cc(-c2cc(OC3CC3)ccc2F)c(OCc2n[nH]c3cnccc23)cc1Cl` [Example D51], the IC50 amounted to 69 nM.

`CC(C)(C)c1cc(Cl)c(C#N)cc1OCc1n[nH]c2ncccc12` [Example D52] returned an IC50 of 2 nM.

`N#Cc1cc(-c2cc(OC3CC3)ccc2F)c(OCc2n[nH]c3ncccc23)cc1Cl` [Example D53] registered an IC50 of 8 nM.

With `N#Cc1cc(-c2cc(OC(F)(F)F)ccc2F)c(OCc2n[nH]c3ccncc23)cc1Cl` [Example D54], the IC50 amounted to 28 nM.

For `N#Cc1cc(-c2cc(OC(F)(F)F)ccc2F)c(OCc2n[nH]c3ncccc23)cc1Cl` [Example D55], it took 3 nM to reach half-maximal inhibition (IC50).

In turn, `Cc1cc(OCc2n[nH]c3c2CN(C(=O)OC(C)(C)C)CC3)c(C(C)(C)C)cc1Cl` [Example E1, tert-Butyl 3-((2-tert-butyl-4-chloro-5-methylphenoxy)methyl)-6,7-dihydro-1H-pyrazolo[4,3-c]pyridine-5(4H)-carboxylate] registered a half-inhibitory concentration (IC50) of 746 nM.

In turn, `CC(=O)N1CCc2[nH]nc(COc3cc(C)c(Cl)cc3C(C)(C)C)c2C1` [Example E2, 1-(3-((2-tert-Butyl-4-chloro-5-methylphenoxy)methyl)-6,7-dihydro-1H-pyrazolo[4,3-c]pyridin-5(4H)-yl)ethanone] came in with a half-inhibitory concentration (IC50) of 41300 nM.

Consider `COCC(=O)N1CCc2[nH]nc(COc3cc(C)c(Cl)cc3C(C)(C)C)c2C1` [Example E3, 1-(3-((2-tert-Butyl-4-chloro-5-methylphenoxy)methyl)-6,7-dihydro-1H-pyrazolo[4,3-c]pyridin-5(4H)-yl)-2-methoxyethanone], for which the midpoint of inhibition, the IC50, lay at 80400 nM.

Compound `Cc1cc(OCc2n[nH]c3c2CCNC3)c(C(C)(C)C)cc1Cl` [Example E4, 3-((2-tert-Butyl-4-chloro-5-methylphenoxy)methyl)-4,5,6,7-tetrahydro-1H-pyrazolo[3,4-c]pyridine] returned an IC50 of 19 nM.

As for `CC(=O)N1CCc2c(COc3cc(C)c(Cl)cc3C(C)(C)C)n[nH]c2C1` [Example E5, 1-(3-((2-tert-Butyl-4-chloro-5-methylphenoxy)methyl)-4,5-dihydro-1H-pyrazolo[3,4-c]pyridin-6(7H)-yl)ethanone], 17 nM corresponded to half-maximal inhibition (IC50).

`COCC(=O)N1CCc2c(COc3cc(C)c(Cl)cc3C(C)(C)C)n[nH]c2C1` [Example E6, 1-(3-((2-tert-Butyl-4-chloro-5-methylphenoxy)methyl)-4,5-dihydro-1H-pyrazolo[3,4-c]pyridin-6(7H)-yl)-2-methoxyethanone] yielded an IC50 of 15 nM.

On to `COc1ncccc1-c1cc(Cl)c(C)cc1OCc1n[nH]c2c1CCNC2` [Example E7, 3-((4-Chloro-2-(2-methoxypyridin-3-yl)-5-methylphenoxy)methyl)-4,5,6,7-tetrahydro-1H-pyrazolo[3,4-c]pyridine], for which the IC50 came to 202 nM.

`COc1ncccc1-c1cc(Cl)c(C)cc1OCc1n[nH]c2c1CCN(C(C)=O)C2` [Example E8, 1-(3-((4-Chloro-2-(2-methoxypyridin-3-yl)-5-methylphenoxy)methyl)-4,5-dihydro-1H-pyrazolo[3,4-c]pyridin-6(7H)-yl)ethanone] displayed an IC50 of 69 nM.

In the case of `Cc1cc(OCc2cc[nH]n2)c(C(C)(C)C)cc1Cl` [Example F1, 3-((2-tert-Butyl-4-chloro-5-methylphenoxy)methyl)-1H-pyrazole], the IC50 was determined as 27 nM.

Take `Cc1cc(OCc2cc[nH]n2)c(C(C)(C)C)cc1C#N` [Example F2, 4-((1H-Pyrazol-3-yl)methoxy)-5-tert-butyl-2-methylbenzonitrile]: the concentration for half-maximal inhibition (IC50) turned out to be 18 nM.

For `COC(=O)c1cc(COc2cc(C)c(Cl)cc2C(C)(C)C)n[nH]1` [Example F3, Methyl 3-((2-(tert-butyl)-4-chloro-5-methylphenoxy)methyl)-1H-pyrazole-5-carboxylate], it took 10 nM to reach half-maximal inhibition (IC50).
